Test results from the NIST ThermoML archive (doi:10.1016/j.tca.2016.05.001).
Where “and” joins values, the source holds several entries; their conditions need not be identical. Equal entries are not always repeated.

Assays:
[1] = for Triple point temperature: DSC
[2] = Molar enthalpy of transition or fusion; settings: Crystal; DSC

c1ccc2nc3ccccc3cc2c1 [acridine]
[1]
Settings | vapor or sublimation pressure
292.1 K, Crystal, Calculated from knudsen effusion weight loss | 4e-06 kPa
293 K, Crystal, Calculated from knudsen effusion weight loss | 4.7e-06 kPa
295.2 K, Crystal, Calculated from knudsen effusion weight loss | 6.3e-06 kPa
296.1 K, Crystal, Calculated from knudsen effusion weight loss | 6.7e-06 kPa
298.4 K, Crystal, Calculated from knudsen effusion weight loss | 9.6e-06 kPa
300 K, Crystal, Calculated from knudsen effusion weight loss | 1.2e-05 kPa
301.3 K, Crystal, Calculated from knudsen effusion weight loss | 1.4e-05 kPa
303 K, Crystal, Calculated from knudsen effusion weight loss | 1.8e-05 kPa
304.2 K, Crystal, Calculated from knudsen effusion weight loss | 2e-05 kPa
305.9 K, Crystal, Calculated from knudsen effusion weight loss | 2.6e-05 kPa
306.2 K, Crystal, Calculated from knudsen effusion weight loss | 2.6e-05 kPa
308.1 K, Crystal, Calculated from knudsen effusion weight loss | 3.3e-05 kPa
308.9 K, Crystal, Calculated from knudsen effusion weight loss | 3.7e-05 kPa
311.1 K, Crystal, Calculated from knudsen effusion weight loss | 4.7e-05 kPa
311.9 K, Crystal, Calculated from knudsen effusion weight loss | 5.3e-05 kPa
314.1 K, Crystal, Calculated from knudsen effusion weight loss | 6.8e-05 kPa
314.8 K, Crystal, Calculated from knudsen effusion weight loss | 7.1e-05 kPa
315.8 K, Crystal, Calculated from knudsen effusion weight loss | 8.4e-05 kPa
317 K, Crystal, Calculated from knudsen effusion weight loss | 9.3e-05 kPa
317.8 K, Crystal, Calculated from knudsen effusion weight loss | 9.8e-05 kPa
318.1 K, Crystal, Calculated from knudsen effusion weight loss | 9.7e-05 kPa
318.8 K, Crystal, Calculated from knudsen effusion weight loss | 0.000119 kPa
319.4 K, Crystal, Calculated from knudsen effusion weight loss | 0.00011 kPa
320 K, Crystal, Calculated from knudsen effusion weight loss | 0.000134 kPa
320.8 K, Crystal, Calculated from knudsen effusion weight loss | 0.000138 kPa and 0.000148 kPa
321.1 K, Crystal, Calculated from knudsen effusion weight loss | 0.00014 kPa
322.3 K, Crystal, Calculated from knudsen effusion weight loss | 0.00015 kPa
322.9 K, Crystal, Calculated from knudsen effusion weight loss | 0.000179 kPa
324 K, Crystal, Calculated from knudsen effusion weight loss | 0.00019 kPa
325.1 K, Crystal, Calculated from knudsen effusion weight loss | 0.00021 kPa
327 K, Crystal, Calculated from knudsen effusion weight loss | 0.00027 kPa
328.1 K, Crystal, Calculated from knudsen effusion weight loss | 0.0003 kPa
329.9 K, Crystal, Calculated from knudsen effusion weight loss | 0.00036 kPa
331.1 K, Crystal, Calculated from knudsen effusion weight loss | 0.0004 kPa
332.9 K, Crystal, Calculated from knudsen effusion weight loss | 0.00048 kPa
334 K, Crystal, Calculated from knudsen effusion weight loss | 0.00057 kPa
335.9 K, Crystal, Calculated from knudsen effusion weight loss | 0.0007 kPa
337.1 K, Crystal, Calculated from knudsen effusion weight loss | 0.00075 kPa
338.9 K, Crystal, Calculated from knudsen effusion weight loss | 0.00091 kPa
340.2 K, Crystal, Calculated from knudsen effusion weight loss | 0.00106 kPa
341.7 K, Crystal, Calculated from knudsen effusion weight loss | 0.00122 kPa
343 K, Crystal, Calculated from knudsen effusion weight loss | 0.00145 kPa
344.6 K, Crystal, Calculated from knudsen effusion weight loss | 0.00162 kPa
346.1 K, Crystal, Calculated from knudsen effusion weight loss | 0.0019 kPa
347.6 K, Crystal, Calculated from knudsen effusion weight loss | 0.0022 kPa
348.8 K, Crystal, Calculated from knudsen effusion weight loss | 0.0025 kPa
388.2 K, Liquid, Rate of evaporation | 0.067 kPa
391.2 K, Liquid, Rate of evaporation | 0.08 kPa
395.2 K, Liquid, Rate of evaporation | 0.099 kPa
399.1 K, Liquid, Rate of evaporation | 0.119 kPa
402.1 K, Liquid, Rate of evaporation | 0.147 kPa
405 K, Liquid, Rate of evaporation | 0.17 kPa
408 K, Liquid, Rate of evaporation | 0.197 kPa
412 K, Liquid, Rate of evaporation | 0.241 kPa
416 K, Liquid, Rate of evaporation | 0.292 kPa
419.9 K, Liquid, Rate of evaporation | 0.338 kPa
422.9 K, Liquid, Rate of evaporation | 0.396 kPa
425.9 K, Liquid, Rate of evaporation | 0.443 kPa
428.9 K, Liquid, Rate of evaporation | 0.51 kPa
431.8 K, Liquid, Rate of evaporation | 0.601 kPa

Settings | Triple point temperature [K]
[1], Crystal | 382

Settings | Molar enthalpy of transition or fusion [kcal/mol]
[2] | 4.9

c1ccc2c(c1)cnc1ccccc12 [phenanthridine]
[1]
Settings | vapor or sublimation pressure
318.6 K, Crystal, Torsion effusion method | 3.8e-05 kPa
322.1 K, Crystal, Torsion effusion method | 5.7e-05 kPa
323.2 K, Crystal, Torsion effusion method | 7.6e-05 kPa
324 K, Crystal, Torsion effusion method | 7.6e-05 kPa
325 K, Crystal, Torsion effusion method | 8.5e-05 kPa
325.2 K, Crystal, Torsion effusion method | 9.4e-05 kPa
325.9 K, Crystal, Torsion effusion method | 0.000104 kPa
327 K, Crystal, Torsion effusion method | 0.000104 kPa
327.6 K, Crystal, Torsion effusion method | 0.000124 kPa
329.1 K, Crystal, Torsion effusion method | 0.000133 kPa
329.3 K, Crystal, Torsion effusion method | 0.000151 kPa
330 K, Crystal, Torsion effusion method | 0.000142 kPa
330.9 K, Crystal, Torsion effusion method | 0.000181 kPa
331.9 K, Crystal, Torsion effusion method | 0.00019 kPa
332.6 K, Crystal, Torsion effusion method | 0.000208 kPa
332.9 K, Crystal, Torsion effusion method | 0.000228 kPa
333.9 K, Crystal, Torsion effusion method | 0.00025 kPa
334.1 K, Crystal, Torsion effusion method | 0.00023 kPa
334.7 K, Crystal, Torsion effusion method | 0.00025 kPa
335 K, Crystal, Torsion effusion method | 0.00026 kPa
335.7 K, Crystal, Torsion effusion method | 0.0003 kPa
335.9 K, Crystal, Torsion effusion method | 0.00028 kPa
337 K, Crystal, Torsion effusion method | 0.00034 kPa
337.9 K, Crystal, Torsion effusion method | 0.00038 kPa
338.4 K, Crystal, Torsion effusion method | 0.00036 kPa
339.8 K, Crystal, Torsion effusion method | 0.00045 kPa
340 K, Crystal, Torsion effusion method | 0.00044 kPa and 0.00047 kPa
341.4 K, Crystal, Torsion effusion method | 0.00053 kPa
341.5 K, Crystal, Torsion effusion method | 0.00055 kPa
342.2 K, Crystal, Torsion effusion method | 0.00061 kPa
342.9 K, Crystal, Torsion effusion method | 0.00061 kPa
343.2 K, Crystal, Torsion effusion method | 0.00072 kPa
345.3 K, Crystal, Torsion effusion method | 0.00085 kPa
345.5 K, Crystal, Torsion effusion method | 0.00079 kPa
347.1 K, Crystal, Torsion effusion method | 0.001 kPa
347.3 K, Crystal, Torsion effusion method | 0.00093 kPa
348.2 K, Crystal, Torsion effusion method | 0.00115 kPa
349.4 K, Crystal, Torsion effusion method | 0.00128 kPa
388.1 K, Liquid, Rate of evaporation | 0.038 kPa
393.1 K, Liquid, Rate of evaporation | 0.05 kPa
398.1 K, Liquid, Rate of evaporation | 0.065 kPa
403.1 K, Liquid, Rate of evaporation | 0.086 kPa
408.1 K, Liquid, Rate of evaporation | 0.113 kPa
413.1 K, Liquid, Rate of evaporation | 0.145 kPa
418.1 K, Liquid, Rate of evaporation | 0.187 kPa
423.1 K, Liquid, Rate of evaporation | 0.24 kPa
428.1 K, Liquid, Rate of evaporation | 0.302 kPa
433.1 K, Liquid, Rate of evaporation | 0.369 kPa
438.1 K, Liquid, Rate of evaporation | 0.469 kPa
443.1 K, Liquid, Rate of evaporation | 0.567 kPa
448.1 K, Liquid, Rate of evaporation | 0.728 kPa
453.1 K, Liquid, Rate of evaporation | 0.854 kPa

Settings | Triple point temperature [K]
[1], Crystal | 379.1

Settings | Molar enthalpy of transition or fusion [kcal/mol]
[2] | 5.93

c1ccc2nc3ccccc3nc2c1 [phenazine]
[1]
Settings | vapor or sublimation pressure
291.8 K, Crystal, Calculated from knudsen effusion weight loss | 9.4e-07 kPa
293.5 K, Crystal, Calculated from knudsen effusion weight loss | 1.3e-06 kPa
296.3 K, Crystal, Calculated from knudsen effusion weight loss | 1.6e-06 kPa
300.3 K, Crystal, Calculated from knudsen effusion weight loss | 2.9e-06 kPa
303.5 K, Crystal, Calculated from knudsen effusion weight loss | 4.7e-06 kPa
306.3 K, Crystal, Calculated from knudsen effusion weight loss | 6.1e-06 kPa
310.3 K, Crystal, Calculated from knudsen effusion weight loss | 1.1e-05 kPa
313.3 K, Crystal, Calculated from knudsen effusion weight loss | 1.81e-05 kPa
316.2 K, Crystal, Calculated from knudsen effusion weight loss | 2.24e-05 kPa and 2.6e-05 kPa
320.1 K, Crystal, Calculated from knudsen effusion weight loss | 3.8e-05 kPa and 4.6e-05 kPa
323.1 K, Crystal, Calculated from knudsen effusion weight loss | 6.6e-05 kPa
323.6 K, Crystal, Calculated from knudsen effusion weight loss | 6.5e-05 kPa
326.1 K, Crystal, Calculated from knudsen effusion weight loss | 8.9e-05 kPa
330 K, Crystal, Calculated from knudsen effusion weight loss | 0.00015 kPa
332.9 K, Crystal, Calculated from knudsen effusion weight loss | 0.000196 kPa
335.9 K, Crystal, Calculated from knudsen effusion weight loss | 0.000264 kPa
339.8 K, Crystal, Calculated from knudsen effusion weight loss | 0.0004 kPa
342.8 K, Crystal, Calculated from knudsen effusion weight loss | 0.00056 kPa
450.3 K, Liquid, Rate of evaporation | 2.018 kPa
451.4 K, Liquid, Rate of evaporation | 2.101 kPa
452.5 K, Liquid, Rate of evaporation | 2.186 kPa
454.8 K, Liquid, Rate of evaporation | 2.441 kPa
456.7 K, Liquid, Rate of evaporation | 2.618 kPa
458.9 K, Liquid, Rate of evaporation | 2.836 kPa
460.1 K, Liquid, Rate of evaporation | 3.041 kPa
462.6 K, Liquid, Rate of evaporation | 3.328 kPa
464.2 K, Liquid, Rate of evaporation | 3.533 kPa
466.7 K, Liquid, Rate of evaporation | 3.944 kPa
469.1 K, Liquid, Rate of evaporation | 4.316 kPa

Settings | Triple point temperature [K]
[1], Crystal | 446.4

Settings | Molar enthalpy of transition or fusion [kcal/mol]
[2] | 4.61
